Measured values reported in patent US10513521B2, “Compositions and methods for inhibiting BMP” (The Brigham and Women's Hospital, Inc., priority 2014, dated 2019).
Changes are numbered by the printed parent chain.

Tests used:
ALK2 [1] = target: T1, ALK2 (Mus musculus, UniProt P37172); assay: HTRF pSMAD1 cell-based ALK2 assay (C2C12 cells, BMP6 as agonist); settings: cell-based assay, BMP6; read-out: Cell IC50 BMP6
T1 construct: The C2C12 cell line was selected for the measurement of ALK2 activity using BMP6 as the agonist; host or cells: C2C12
T1 sequence (P37172 21-509): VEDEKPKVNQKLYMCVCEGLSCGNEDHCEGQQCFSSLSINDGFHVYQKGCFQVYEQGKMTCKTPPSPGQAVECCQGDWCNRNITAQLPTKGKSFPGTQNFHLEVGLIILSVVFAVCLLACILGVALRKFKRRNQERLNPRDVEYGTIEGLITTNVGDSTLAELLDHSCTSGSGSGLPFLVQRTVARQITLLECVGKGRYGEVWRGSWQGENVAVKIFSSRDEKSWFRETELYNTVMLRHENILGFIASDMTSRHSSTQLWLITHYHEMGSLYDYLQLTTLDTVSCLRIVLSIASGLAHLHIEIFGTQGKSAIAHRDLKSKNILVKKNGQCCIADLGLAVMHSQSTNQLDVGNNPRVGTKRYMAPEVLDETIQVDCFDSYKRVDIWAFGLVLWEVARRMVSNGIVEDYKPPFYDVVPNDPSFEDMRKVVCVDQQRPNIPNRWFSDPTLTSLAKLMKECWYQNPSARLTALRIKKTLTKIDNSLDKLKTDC
How it was run: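 Phospho-SMAD1 HTRF readout, detection incubated overnight at room temperature. Before that: starved cells in 0.1% FBS for 4 h, 30 min compound pretreatment, then 30 min agonist, BMP6 on C2C12 or BMP9 on BAOEC.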

[2] = Cell-based assay, TGFb1 (Cell IC50)
ALK1 = ALK1 (Homo sapiens, UniProt P37023); assay: TR-FRET enzymatic ALK kinase assay, ALK1
Sequence of ALK1 (P37023 22-503): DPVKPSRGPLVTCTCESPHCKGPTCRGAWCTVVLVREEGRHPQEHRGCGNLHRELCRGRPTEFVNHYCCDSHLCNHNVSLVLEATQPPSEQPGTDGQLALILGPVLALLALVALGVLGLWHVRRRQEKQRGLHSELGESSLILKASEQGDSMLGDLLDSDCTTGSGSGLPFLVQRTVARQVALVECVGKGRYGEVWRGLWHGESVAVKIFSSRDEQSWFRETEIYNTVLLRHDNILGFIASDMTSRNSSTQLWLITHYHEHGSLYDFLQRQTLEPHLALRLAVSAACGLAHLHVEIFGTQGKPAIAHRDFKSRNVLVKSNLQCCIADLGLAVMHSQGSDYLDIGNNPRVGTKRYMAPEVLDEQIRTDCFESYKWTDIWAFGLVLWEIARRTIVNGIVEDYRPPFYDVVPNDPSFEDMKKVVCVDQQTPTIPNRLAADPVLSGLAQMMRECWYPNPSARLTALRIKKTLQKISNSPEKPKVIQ
Protocol: (§1) Briefly, the ALKs enzymatic assay was initiated by dispense 2.5 μl enzyme in 1× kinase reaction buffer. The assay plate was then added with compounds followed by incubation at room temperature for 10 minutes. Then 2.5 μl/well substrate was added.

ALK2 [3] = target: T2, ALK2 (Homo sapiens, UniProt Q04771); assay: TR-FRET enzymatic ALK kinase assay, ALK2
T2 sequence (Q04771 21-509): T1 sequence (P37172 21-509) with V1M, Q10P, I121L, E162D, S310P
Protocol: as §1

ALK3 = ALK3 (Homo sapiens, UniProt P36894); assay: TR-FRET enzymatic ALK kinase assay, ALK3
Sequence of ALK3 (P36894 24-532): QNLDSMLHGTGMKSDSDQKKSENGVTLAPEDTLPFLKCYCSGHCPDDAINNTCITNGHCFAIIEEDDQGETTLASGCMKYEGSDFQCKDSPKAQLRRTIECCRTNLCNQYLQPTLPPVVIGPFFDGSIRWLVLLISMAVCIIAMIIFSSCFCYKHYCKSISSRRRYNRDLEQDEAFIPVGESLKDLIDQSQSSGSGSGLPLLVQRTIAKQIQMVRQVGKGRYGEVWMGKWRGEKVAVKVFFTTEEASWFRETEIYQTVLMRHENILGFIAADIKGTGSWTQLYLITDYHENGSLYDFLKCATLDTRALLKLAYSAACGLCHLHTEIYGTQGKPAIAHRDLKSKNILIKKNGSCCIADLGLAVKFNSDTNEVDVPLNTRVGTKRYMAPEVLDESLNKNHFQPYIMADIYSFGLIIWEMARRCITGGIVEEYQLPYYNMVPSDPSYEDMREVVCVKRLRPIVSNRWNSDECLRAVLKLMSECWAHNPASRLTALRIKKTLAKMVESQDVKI
Protocol: as §1

ALK4 = target: T3, ALK4 (Homo sapiens, UniProt P36896); assay: TR-FRET enzymatic ALK kinase assay, ALK4
T3 sequence (P36896 24-505): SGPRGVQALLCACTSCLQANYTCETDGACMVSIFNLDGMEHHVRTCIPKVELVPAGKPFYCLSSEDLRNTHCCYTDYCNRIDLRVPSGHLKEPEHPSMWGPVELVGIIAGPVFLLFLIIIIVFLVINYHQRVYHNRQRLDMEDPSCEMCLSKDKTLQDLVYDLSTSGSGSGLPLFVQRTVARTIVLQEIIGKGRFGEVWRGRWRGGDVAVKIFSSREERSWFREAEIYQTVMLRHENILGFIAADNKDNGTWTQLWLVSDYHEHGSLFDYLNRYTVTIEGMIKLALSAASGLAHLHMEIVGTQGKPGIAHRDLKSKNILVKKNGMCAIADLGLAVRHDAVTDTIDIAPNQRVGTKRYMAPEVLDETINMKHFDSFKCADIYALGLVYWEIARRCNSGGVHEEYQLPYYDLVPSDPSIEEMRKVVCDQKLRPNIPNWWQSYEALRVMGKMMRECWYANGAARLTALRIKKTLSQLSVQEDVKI
Protocol: as §1

ALK5 = target: T4, ALK5 (Homo sapiens, UniProt P36897); assay: TR-FRET enzymatic ALK kinase assay, ALK5
T4 sequence (P36897 34-503): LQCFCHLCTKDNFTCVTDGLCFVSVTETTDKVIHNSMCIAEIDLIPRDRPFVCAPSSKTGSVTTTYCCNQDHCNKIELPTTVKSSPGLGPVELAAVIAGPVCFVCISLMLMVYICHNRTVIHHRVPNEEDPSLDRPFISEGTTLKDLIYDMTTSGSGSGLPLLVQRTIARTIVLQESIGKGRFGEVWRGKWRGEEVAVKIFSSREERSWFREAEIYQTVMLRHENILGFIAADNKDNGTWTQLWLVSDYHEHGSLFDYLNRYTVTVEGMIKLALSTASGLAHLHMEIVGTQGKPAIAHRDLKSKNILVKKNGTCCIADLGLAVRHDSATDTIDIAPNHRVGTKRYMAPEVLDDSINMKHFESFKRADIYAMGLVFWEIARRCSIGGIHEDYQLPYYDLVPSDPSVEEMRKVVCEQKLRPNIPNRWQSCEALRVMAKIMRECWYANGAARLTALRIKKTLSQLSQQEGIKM
Protocol: Six ALK kinase enzyme assays were developed for determination of compound activities on ALK1, ALK2, ALK3, ALK4, ALK5 and ALK6.
as §1

ALK6 = ALK6 (Homo sapiens, UniProt O00238); assay: TR-FRET enzymatic ALK kinase assay, ALK6
Sequence of ALK6 (O00238 14-502): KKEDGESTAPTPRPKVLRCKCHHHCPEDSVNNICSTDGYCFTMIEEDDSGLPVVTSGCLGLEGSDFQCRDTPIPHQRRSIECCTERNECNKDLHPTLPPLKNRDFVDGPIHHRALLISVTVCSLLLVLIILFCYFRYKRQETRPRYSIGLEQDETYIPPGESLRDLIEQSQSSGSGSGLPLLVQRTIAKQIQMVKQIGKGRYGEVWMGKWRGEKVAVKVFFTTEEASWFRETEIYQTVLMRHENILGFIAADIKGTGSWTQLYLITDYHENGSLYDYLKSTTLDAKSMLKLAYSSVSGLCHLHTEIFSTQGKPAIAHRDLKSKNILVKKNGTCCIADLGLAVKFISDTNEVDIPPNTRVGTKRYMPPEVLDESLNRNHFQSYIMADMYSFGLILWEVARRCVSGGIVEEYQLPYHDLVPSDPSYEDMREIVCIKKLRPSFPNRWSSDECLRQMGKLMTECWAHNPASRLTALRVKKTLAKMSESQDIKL
Protocol: as §1

SMILES	IC50 (ALK2 [1]) [nM]	IC50 [2] [nM]	IC50 (ALK1) [nM]	IC50 (ALK2 [3]) [nM]	IC50 (ALK3) [nM]	IC50 (ALK4) [nM]	IC50 (ALK5) [nM]	IC50 (ALK6) [nM]
c1ccc(-c2cnn3cc(-c4ccc(CCN5CCCCC5)cc4)cnc23)cc1 [Compound 88, 3-phenyl-6-(4-(2-(piperidin-1-yl)ethyl)phenyl)pyrazolo[1,5-a]pyrimidine]	5920	58	1300	420	> 10000	> 10000	> 10000	> 10000
c1cc(-c2cc[nH]n2)cc(-c2cnn3cc(-c4ccc(CCN5CCCCC5)cc4)cnc23)c1 [Compound 90, 3-(3-(1H-pyrazol-3-yl)phenyl)-6-(4-(2-(piperidin-1-yl)ethyl)phenyl)pyrazolo[1,5-a]pyrimidine]	397	15000	68	14	> 10000	870	> 10000	> 10000
CN1CCC(c2ccc(-c3cnc4c(-c5cccc(S(C)(=O)=O)c5)cnn4c3)cc2)CC1 [Compound 91, 6-(4-(1-methylpiperidin-4-yl)phenyl)-3-(3-(methylsulfonyl)phenyl)pyrazolo[1,5-a]pyrimidine]	179	59200	220	52	3200	> 10000	> 10000	> 10000
CN1CCC(c2ccc(-c3cnc4c(-c5cccc(C(C)(C)O)c5)cnn4c3)cc2)CC1 [Compound 92, 2-(3-(6-(4-(1-methylpiperidin-4-yl)phenyl)pyrazolo[1,5-a]pyrimidin-3-yl)phenyl)propan-2-ol]	266	17000	91	26	1600	> 10000	> 10000	> 10000
CS(=O)(=O)c1cccc(-c2cnn3cc(-c4ccc(C5CCNCC5)cc4)cnc23)c1 [Compound 94, 3-(3-(methylsulfonyl)phenyl)-6-(4-(piperidin-4-yl)phenyl)pyrazolo[1,5-a]pyrimidine]	430	4400	220	53	6100	> 10000	> 10000	> 10000
NS(=O)(=O)c1cccc(-c2cnn3cc(-c4ccc(C5CCNCC5)cc4)cnc23)c1 [Compound 95, 3-(6-(4-(piperidin-4-yl)phenyl)pyrazolo[1,5-a]pyrimidin-3-yl)benzenesulfonamide]	1500	64	520	79	9700	> 10000	> 10000	> 10000
CC(C)(CN1CCCCC1)Oc1ccc(-c2cnc3c(-c4cccc(S(N)(=O)=O)c4)cnn3c2)cc1 [Compound 96, 3-(6-(4-((2-methyl-1-(piperidin-1-yl)propan-2-yl)oxy)phenyl)pyrazolo[1,5-a]pyrimidin-3-yl)benzenesulfonamide]	152	919	240	66	4900	6000	> 10000	> 10000
CC(O)c1cccc(-c2cnn3cc(-c4ccc(CCN5CCCCC5)cc4)cnc23)c1 (stereo not drawn) [Compound 97, 1-(3-(6-(4-(2-(piperidin-1-yl)ethyl)phenyl)pyrazolo[1,5-a]pyrimidin-3-yl)phenyl)ethanol]	1160	1.2	510	99	3000	> 10000	> 10000	> 10000
CC(O)c1cccc(-c2cnn3cc(-c4ccc(C5CCNCC5)cc4)cnc23)c1 (stereo not drawn) [Compound 98, 1-(3-(6-(4-(piperidin-4-yl)phenyl)pyrazolo[1,5-a]pyrimidin-3-yl)phenyl)ethanol]	668	7000	310	72	3300	> 10000	> 10000	> 10000
CC(C)(O)c1cccc(-c2cnn3cc(-c4ccc(CCN5CCCCC5)cc4)cnc23)c1 [Compound 99, 2-(3-(6-(4-(2-(piperidin-1-yl)ethyl)phenyl)pyrazolo[1,5-a]pyrimidin-3-yl)phenyl)propan-2-ol]	509	46000	250	43	2200	> 10000	> 10000	> 10000
CC(C)(O)c1cccc(-c2cnn3cc(-c4ccc(C5CCNCC5)cc4)cnc23)c1 [Compound 100, 2-(3-(6-(4-(piperidin-4-yl)phenyl)pyrazolo[1,5-a]pyrimidin-3-yl)phenyl)propan-2-ol]	477	> 100000	120	39	3300	> 10000	> 10000	> 10000
CC(C)(CN1CCCCC1)Oc1ccc(-c2cnc3c(-c4cccc(S(C)(=O)=O)c4)cnn3c2)cc1 [Compound 101, 6-(4-((2-methyl-1-(piperidin-1-yl)propan-2-yl)oxy)phenyl)-3-(3-(methylsulfonyl)phenyl)pyrazolo[1,5-a]pyrimidine]	203	3280	67	28	2100	6000	> 10000	> 10000
